Experimental data: patent US8034908B2, “Glycolipids and synthetic method thereof as well as their synthetic intermediates, and synthetic method thereof” (Japan as Represented by President of National Center of …, priority 2003, dated 2011)

Tests used:
[1] = test system: Splenocytes; test: Test of production of cytokines by glycolipid derivative (in vitro), mouse splenocytes, ELISA; assay type: cell-based, C57BL/6 mice; conditions: for IFN-γ / IL-4: glycolipid 100 ng/ml, 72 hours culture, culture supernatant, ELISA
Experimental: Test of Production of Cytokines by Glycolipid Derivative (In Vitro)
Splenocytes were prepared from the spleens of C57BL/6 mice (6 to 8 weeks old, female) and suspended in a RPMI1640 medium (purchased by Nakarai) containing 10% fetal bovine serum (purchased by GIBCO), 5×10-^5M 2-mercaptoethanol (purchased by GIBCO), 1 mM pyruvate (purchased by SIGMA), and 25 mM HEPE (purchased by SIGMA). These were seeded on a 96-well flat bottom plate (purchased by IWAKI) in an amount of 5×10e5 cells/well and a glycolipid derivative was added to each at a final concentration of 100 ng/ml. The results were cultured at 37° C. in the presence of 5% CO2 for 72 hours, then the culture supernatent was collected. The concentration of the IL-4 and IFN-γ in the culture supernatent were measured by ELISA (BD Pharmingen EIA Kit) (Table 2).

[2] = test system: NKT cells; conditions: cited from earlier work
[3] = test system: mouse experimental autoimmunological encephalomyelitis (EAE) model; conditions: oral administration; cited from earlier work

| Structure (SMILES) | IFN-γ [1] [pg/mL] | IL-4 [1] [pg/mL] | IFN-γ producing activity (in words) ([1]; compared with α-GalCer, Table 2) | Cytokines produced by NKT cells (in words) [2] | Effect in EAE model (in words) [3] |
| --- | --- | --- | --- | --- | --- |
| CCCCCCCCCCCCCCCCCCCCCCCC(=O)N[C@@H](COC1OC(CO)C(O)C(O)C1O)[C@H](O)[C@H](O)Cc1ccc(C)cc1 (stereo partly drawn) [Compound 117, 5-(4-methylphenyl)-2-tetracosanoylamino-1-O-α-D-galactopyranosyl-D-ribo-1,3,4-pentanetriol] | 5485 | 181 |  |  |  |
| CCCCCCCCCCCCCCCCCCCCCCCC(=O)N[C@@H](COC1OC(CO)C(O)C(O)C1O)[C@H](O)[C@H](O)CCc1ccccc1 (stereo partly drawn) [Compound 115, 6-phenyl-2-tetracosanoylamino-1-O-α-D-galactopyranosyl-D-ribo-1,3,4-hexanetriol] | 2481 | 137 |  |  |  |
| CCCCCCCCCCCCCCCCCCCCCCCC(=O)N[C@@H](COC1OC(CO)C(O)C(O)C1O)[C@H](O)[C@H](O)CC1CCCC1 (stereo partly drawn) [Compound 116, 5-cyclopentyl-2-tetracosanoylamino-1-O-α-D-galactopyranosyl-D-ribo-1,3,4-pentanetriol] | 5268 | 226 |  |  |  |
| CCCCCCCCCCCCCCCCCCCCCC(=O)N[C@@H](COC1OC(CO)C(O)C(O)C1O)[C@H](O)[C@H](O)CCCCCC (stereo partly drawn) [Compound 113, 2-docasanoylamino-1-O-α-D-galactopyranosyl-D-ribo-1,3,4-decanetriol] | 7967 | 251 |  |  |  |
| CCCCCCCCCCCCCCCCCCCCCCC(=O)N[C@@H](COC1OC(CO)C(O)C(O)C1O)[C@H](O)[C@H](O)CC (stereo partly drawn) [Compound 112, 2-tricosanoylamino-1-O-α-D-galactopyranosyl-D-ribo-1,3,4-hexanetriol] | 5832 | 237 |  |  |  |
| CCCCCCCCCCCCCCCCCCCCCCCCCC(=O)N[C@@H](CO[C@H]1O[C@H](CO)[C@H](O)[C@H](O)[C@H]1O)[C@H](O)[C@H](O)CCCCCCCCCCCCCC [α-Galcer, (2S,3S,4R)-1-O-(α-D-galactosyl)-2-(N-hexacosanoylamino)-1,3,4-octadecanetriol, reference compound] | 21900 | 201 | IFN-γ was produced remarkably dominantly | causes NKT cells to produce IFN-γ and IL-4 |  |
| CCCCCCCCCCCCCCCCCCCCCCC(=O)N[C@@H](CO[C@H]1O[C@H](CO)[C@H](O)[C@H](O)[C@H]1O)[C@H](O)[C@H](O)CCCCCC [Compound 114, 2-tricosanoylamino-1-O-α-D-galactopyranosyl-D-ribo-1,3,4-decanetriol] | 8067 | 225 |  |  |  |
| CCCCCCCCCCCCCCCCCCCCCCCC(=O)N[C@@H](COC1OC(CO)C(O)C(O)C1O)[C@H](O)[C@H](O)CCCCC (some centres unmarked) [OCH] |  |  |  | more selectively promotes the production of IL-4 | effected in oral administration |
| CCCCCCCCCCCCCCCCCCCCCCCC(=O)N[C@@H](CO[C@H]1O[C@H](CO)[C@H](O)[C@H](O)[C@H]1O)[C@H](O)[C@H](O)CCCCC.O [Compound 129, 2-tetracosanoylamino-1-O-α-D-galactopyranosyl-D-ribo-1,3,4-nonanetriol 1-hydrate] | 7179 | 232 |  |  |  |
| CCCCCCCCCCCCCCCCCCCCCCC(=O)N[C@@H](COC1OC(CO)C(O)C(O)C1O)[C@H](O)[C@H](O)CCCC (stereo partly drawn) [Compound 110, 2-tricosanoylamino-1-O-α-D-galactopyranosyl-D-ribo-1,3,4-octanetriol] | 10614 | 226 |  |  |  |
| CCCCCCCCCCCCCCOc1ccc(CCCCC(=O)N[C@@H](COC2OC(CO)C(O)C(O)C2O)[C@H](O)[C@H](O)CCCCC)cc1 (some centres unmarked) [Compound 127] | 2506 | 159 |  |  |  |
| CCCCCCCCCCCCCCCCCCCCCC(=O)N[C@@H](COC1OC(CO)C(O)C(O)C1O)[C@H](O)[C@H](O)CCC (stereo partly drawn) [Compound 111, 2-docasanoylamino-1-O-α-D-galactopyranosyl-D-ribo-1,3,4-heptanetriol] | 7413 | 256 |  |  |  |
